Reference: publication PMC9090415, “Discovery of small molecule inhibitors of Plasmodium falciparum apicoplast DNA polymerase” (Journal of Enzyme Inhibition and Medicinal Chemistry, 2022)
pIC50: −log10 of the molar value.

Molecular target: P. falciparum apicoplast DNA polymerase (Pf-apPOL) (Plasmodium falciparum, UniProt Q8ILY1)
Assay: Fluorescence-based high-throughput DNA polymerase assay (molecular beacon), primary screen and dose-response;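 for % inhibition ApPOL 90': test concentration in µM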;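 for % inhibition apPOL 180': test concentration in µM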
Format: biochemical
Method in brief: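 Single-point screening used 10 µM compound with 20 nM polymerase, 20 nM hairpin substrate and 6 µM dNTPs for 90 min at 25 °C. Confirmatory titrations (2.5–80 µM) followed fluorescence at three times, and IC50 was derived from a fit including a cooperativity term n.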

[1] = supplemental file 2, sheet IC50 nontoxic compounds; Pf-apPOL
[2] = 'DNA Pol'; screening value, unit not given; 90 min, 10 µM
[3] = primary screen hit value, DNA Pol (186 hits); 90 min, 10 µM

Sequence of P. falciparum apicoplast DNA polymerase (Pf-apPOL) (Q8ILY1 entry or part of it): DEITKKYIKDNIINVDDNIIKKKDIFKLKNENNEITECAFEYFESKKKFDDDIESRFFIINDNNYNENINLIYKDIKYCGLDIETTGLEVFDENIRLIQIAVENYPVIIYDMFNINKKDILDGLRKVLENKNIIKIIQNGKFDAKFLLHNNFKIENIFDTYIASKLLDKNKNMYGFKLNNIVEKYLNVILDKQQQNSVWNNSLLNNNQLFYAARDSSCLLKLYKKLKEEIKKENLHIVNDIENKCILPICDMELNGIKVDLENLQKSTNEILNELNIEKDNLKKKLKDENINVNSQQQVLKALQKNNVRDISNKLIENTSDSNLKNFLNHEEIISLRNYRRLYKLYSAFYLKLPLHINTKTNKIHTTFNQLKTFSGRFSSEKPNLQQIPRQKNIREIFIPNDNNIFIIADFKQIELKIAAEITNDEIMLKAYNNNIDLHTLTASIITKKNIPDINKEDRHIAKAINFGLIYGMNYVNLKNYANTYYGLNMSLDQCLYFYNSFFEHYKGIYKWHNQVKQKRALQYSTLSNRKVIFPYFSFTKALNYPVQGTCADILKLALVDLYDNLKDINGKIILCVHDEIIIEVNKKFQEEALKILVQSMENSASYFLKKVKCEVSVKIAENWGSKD

Structure (SMILES): COc1ccc(-c2cc(=O)c3cc(O)ccc3o2)cc1OC [KU0193655]
- % inhibition Apo pol 10' (DRC-1; 10'; concentration 2.5): -0.1967%
- % inhibition Apo pol 10' (DRC-1; 10'; concentration 5): 8.174%
- % inhibition Apo pol 10' (DRC-1; 10'; concentration 10): 18.1231%
- % inhibition Apo pol 10' (DRC-1; 10'; concentration 20): 34.6118%
- % inhibition Apo pol 10' (DRC-1; 10'; concentration 40): 62.4482%
- % inhibition Apo pol 10' (DRC-1; 10'; concentration 80): 84.2826%
- % inhibition Apol 90' (DRC-1; 90'; concentration 2.5): 2.413%
- % inhibition Apol 90' (DRC-1; 90'; concentration 5): 7.049%
- % inhibition Apol 90' (DRC-1; 90'; concentration 10): 17.1119%
- % inhibition Apol 90' (DRC-1; 90'; concentration 20): 31.7706%
- % inhibition Apol 90' (DRC-1; 90'; concentration 40): 60.6022%
- % inhibition Apol 90' (DRC-1; 90'; concentration 80): 83.5295%
- % inhibition apPOL 180' (DRC-1; 180'; concentration 2.5): 2.832%
- % inhibition apPOL 180' (DRC-1; 180'; concentration 5): 6.576%
- % inhibition apPOL 180' (DRC-1; 180'; concentration 10): 16.442%
- % inhibition apPOL 180' (DRC-1; 180'; concentration 20): 31.1115%
- % inhibition apPOL 180' (DRC-1; 180'; concentration 40): 58.5037%
- % inhibition apPOL 180' (DRC-1; 180'; concentration 80): 84.0263%
- % inhibition Apo pol 5' (DRC-2; 5'; concentration 2.5): -0.529%
- % inhibition Apo pol 5' (DRC-2; 5'; concentration 5): 0.718%
- % inhibition Apo pol 5' (DRC-2; 5'; concentration 10): 15%
- % inhibition Apo pol 5' (DRC-2; 5'; concentration 20): 23%
- % inhibition Apo pol 5' (DRC-2; 5'; concentration 40): 39%
- % inhibition Apo pol 5' (DRC-2; 5'; concentration 80): 47%
- % inhibition Apol 40' (DRC-2; 40'; concentration 2.5): 1.36%
- % inhibition Apol 40' (DRC-2; 40'; concentration 5): 3.64%
- % inhibition Apol 40' (DRC-2; 40'; concentration 10): 19%
- % inhibition Apol 40' (DRC-2; 40'; concentration 20): 29%
- % inhibition Apol 40' (DRC-2; 40'; concentration 40): 49%
- % inhibition Apol 40' (DRC-2; 40'; concentration 80): 61%
- % inhibition ApPOL 90' (DRC-2; 90'; concentration 2.5): 0.778%
- % inhibition ApPOL 90' (DRC-2; 90'; concentration 5): 6%
- % inhibition ApPOL 90' (DRC-2; 90'; concentration 10): 20%
- % inhibition ApPOL 90' (DRC-2; 90'; concentration 20): 32%
- % inhibition ApPOL 90' (DRC-2; 90'; concentration 40): 53%
- % inhibition ApPOL 90' (DRC-2; 90'; concentration 80): 65%
- % inhibition apPOL 180' (DRC-2; 180'; concentration 2.5): -1.88%
- % inhibition apPOL 180' (DRC-2; 180'; concentration 5): 5%
- % inhibition apPOL 180' (DRC-2; 180'; concentration 10): 21%
- % inhibition apPOL 180' (DRC-2; 180'; concentration 20): 34%
- % inhibition apPOL 180' (DRC-2; 180'; concentration 40): 56%
- % inhibition apPOL 180' (DRC-2; 180'; concentration 80): 68%
- DNA Pol (primary screen value by plate and well; 90 min, 10 µM): 27
- DNA Pol (primary screen value of the 186 hits; unit not given; 90 min, 10 µM): 27

Structure (SMILES): COC(=O)c1sc(-c2ccc(C(C)(C)C)cc2)cc1NC(=O)CCC(=O)O [Molecule 87]
- pIC50 [1]: 5.05

Structure (SMILES): O=C(O)CC1=NN(c2cccc([N+](=O)[O-])c2)C(=O)C1 [KU0100531]
- DNA Pol [2]: 37
- % inhibition Apo pol 10' (DRC-1; 10'; concentration 2.5): 32.2581%
- % inhibition Apo pol 10' (DRC-1; 10'; concentration 5): 49.6373%
- % inhibition Apo pol 10' (DRC-1; 10'; concentration 10): 61.4137%
- % inhibition Apo pol 10' (DRC-1; 10'; concentration 20): 68.5645%
- % inhibition Apo pol 10' (DRC-1; 10'; concentration 40): 76.8361%
- % inhibition Apo pol 10' (DRC-1; 10'; concentration 80): 88.3009%
- % inhibition Apol 90' (DRC-1; 90'; concentration 2.5): 15.7319%
- % inhibition Apol 90' (DRC-1; 90'; concentration 5): 18.7201%
- % inhibition Apol 90' (DRC-1; 90'; concentration 10): 28.2695%
- % inhibition Apol 90' (DRC-1; 90'; concentration 20): 34.3533%
- % inhibition Apol 90' (DRC-1; 90'; concentration 40): 46.1706%
- % inhibition Apol 90' (DRC-1; 90'; concentration 80): 68.1347%
- % inhibition apPOL 180' (DRC-1; 180'; concentration 2.5): 13.4028%
- % inhibition apPOL 180' (DRC-1; 180'; concentration 5): 8.316%
- % inhibition apPOL 180' (DRC-1; 180'; concentration 10): 15.9728%
- % inhibition apPOL 180' (DRC-1; 180'; concentration 20): 20.4489%
- % inhibition apPOL 180' (DRC-1; 180'; concentration 40): 28.0717%
- % inhibition apPOL 180' (DRC-1; 180'; concentration 80): 50.5655%
- % inhibition Apo pol 5' (DRC-2, 5', concentration 2.5): 25%
- % inhibition Apo pol 5' (DRC-2, 5', concentration 5): 36%
- % inhibition Apo pol 5' (DRC-2, 5', concentration 10): 45%
- % inhibition Apo pol 5' (DRC-2, 5', concentration 20): 50%
- % inhibition Apo pol 5' (DRC-2, 5', concentration 40): 58%
- % inhibition Apo pol 5' (DRC-2, 5', concentration 80): 66%
- % inhibition Apol 40' (DRC-2, 40', concentration 2.5): 12%
- % inhibition Apol 40' (DRC-2, 40', concentration 5): 21%
- % inhibition Apol 40' (DRC-2, 40', concentration 10): 32%
- % inhibition Apol 40' (DRC-2, 40', concentration 20): 39%
- % inhibition Apol 40' (DRC-2, 40', concentration 40): 54%
- % inhibition Apol 40' (DRC-2, 40', concentration 80): 71%
- % inhibition ApPOL 90' (DRC-2, 90', concentration 2.5): 6%
- % inhibition ApPOL 90' (DRC-2, 90', concentration 5): 15%
- % inhibition ApPOL 90' (DRC-2, 90', concentration 10): 24%
- % inhibition ApPOL 90' (DRC-2, 90', concentration 20): 31%
- % inhibition ApPOL 90' (DRC-2, 90', concentration 40): 48%
- % inhibition ApPOL 90' (DRC-2, 90', concentration 80): 71%
- % inhibition apPOL 180' (DRC-2, 180', concentration 2.5): 2%
- % inhibition apPOL 180' (DRC-2, 180', concentration 5): 7.6%
- % inhibition apPOL 180' (DRC-2, 180', concentration 10): 17%
- % inhibition apPOL 180' (DRC-2, 180', concentration 20): 23%
- % inhibition apPOL 180' (DRC-2, 180', concentration 40): 41%
- % inhibition apPOL 180' (DRC-2, 180', concentration 80): 70%
- % inhibition Apol 40' (conc 80 (unit not given); 40'; DRC-2): 71%
- % inhibition ApPOL 90' (conc 80 (unit not given); 90'; DRC-2): 71%
- DNA Pol [3]: 37

Structure (SMILES): CCSc1nnc(NC(=O)Cc2csc(NC(=O)c3cnccn3)n2)s1 [Molecule 79, CCSc1nnc(s1)NC(=O)Cc1csc(n1)NC(=O)c1cnccn1]
- DNA Pol [2]: 44
- % inhibition Apo pol 10' (DRC-1; 10'; concentration 2.5): -4.905%
- % inhibition Apo pol 10' (DRC-1; 10'; concentration 5): -2.236%
- % inhibition Apo pol 10' (DRC-1; 10'; concentration 10): 11.7558%
- % inhibition Apo pol 10' (DRC-1; 10'; concentration 20): 21.8429%
- % inhibition Apo pol 10' (DRC-1; 10'; concentration 40): 42.6087%
- % inhibition Apo pol 10' (DRC-1; 10'; concentration 80): 77.5256%
- % inhibition Apol 90' (DRC-1; 90'; concentration 2.5): -9.3965%
- % inhibition Apol 90' (DRC-1; 90'; concentration 5): -9.701%
- % inhibition Apol 90' (DRC-1; 90'; concentration 10): -1.729%
- % inhibition Apol 90' (DRC-1; 90'; concentration 20): 6.401%
- % inhibition Apol 90' (DRC-1; 90'; concentration 40): 23.3518%
- % inhibition Apol 90' (DRC-1; 90'; concentration 80): 61.199%
- % inhibition apPOL 180' (DRC-1; 180'; concentration 2.5): -15.2579%
- % inhibition apPOL 180' (DRC-1; 180'; concentration 5): -16.9778%
- % inhibition apPOL 180' (DRC-1; 180'; concentration 10): -10.4775%
- % inhibition apPOL 180' (DRC-1; 180'; concentration 20): -5.476%
- % inhibition apPOL 180' (DRC-1; 180'; concentration 40): 8.736%
- % inhibition apPOL 180' (DRC-1; 180'; concentration 80): 42.542%
- % inhibition Apo pol 5' (DRC-2, 5', concentration 2.5): 1.36%
- % inhibition Apo pol 5' (DRC-2, 5', concentration 5): 13%
- % inhibition Apo pol 5' (DRC-2, 5', concentration 10): 30%
- % inhibition Apo pol 5' (DRC-2, 5', concentration 20): 43%
- % inhibition Apo pol 5' (DRC-2, 5', concentration 40): 55%
- % inhibition Apo pol 5' (DRC-2, 5', concentration 80): 62%
- % inhibition Apol 40' (DRC-2, 40', concentration 2.5): -2.42%
- % inhibition Apol 40' (DRC-2, 40', concentration 5): 7%
- % inhibition Apol 40' (DRC-2, 40', concentration 10): 25%
- % inhibition Apol 40' (DRC-2, 40', concentration 20): 40%
- % inhibition Apol 40' (DRC-2, 40', concentration 40): 62%
- % inhibition Apol 40' (DRC-2, 40', concentration 80): 76%
- % inhibition ApPOL 90' (DRC-2, 90', concentration 2.5): -4.46%
- % inhibition ApPOL 90' (DRC-2, 90', concentration 5): 5%
- % inhibition ApPOL 90' (DRC-2, 90', concentration 10): 22%
- % inhibition ApPOL 90' (DRC-2, 90', concentration 20): 35%
- % inhibition ApPOL 90' (DRC-2, 90', concentration 40): 62%
- % inhibition ApPOL 90' (DRC-2, 90', concentration 80): 79%
- % inhibition apPOL 180' (DRC-2, 180', concentration 2.5): -6%
- % inhibition apPOL 180' (DRC-2, 180', concentration 5): 1.68%
- % inhibition apPOL 180' (DRC-2, 180', concentration 10): 14%
- % inhibition apPOL 180' (DRC-2, 180', concentration 20): 26%
- % inhibition apPOL 180' (DRC-2, 180', concentration 40): 59%
- % inhibition apPOL 180' (DRC-2, 180', concentration 80): 81%
- % inhibition Apol 40' (conc 40 (unit not given); 40'; DRC-2): 62%
- % inhibition ApPOL 90' (conc 40 (unit not given); 90'; DRC-2): 62%
- % inhibition Apo pol 5' (conc 80 (unit not given); 5'; DRC-2): 62%
- DNA Pol [3]: 44

Structure (SMILES): N#CC(C#N)=C1SCN(c2cccc(Cl)c2)CS1 [Molecule 29]
- pIC50 [1]: 4.92
